# Test system: KLK-5
# Experiment: Inhibition of the synthesis of KLK-5 secreted by normal human keratinocytes in an environment mimicking rosacea (IL-17 + Vit. D induction, ELISA on supernatants, normalized to MTT cell viability)
# Type: cell-based
# Settings: Keratinocyte, NHK, 48 hours, induced with IL-17 10 ng/ml + Vit. D 10-7 mol/L, 1 mM calcium, positive control
# Description: NHKs originating from LONZA (France) were used in this study.
# The culture conditions are as follows: • Cell type: NHK donor PP12 • Culture medium: KBM+Lonza supplements=KGM • Seeding density: 15,000 cells/well in 96-well plates with 100 μl of medium.
# The conditions for induction of the synthesis of KLK-5 are as follows: • Presence of 1 mM of calcium • Inducer mix: (see Table 1) IL-17 at 10 ng/ml+Vit. D at 10-7 mol/L • Processing time: 48 hours • Positive control of induced KLK5 inhibition: Dexamethasone at 1 μM
# The quantification of KLK-5 in the supernatants is carried out using an Enzyme Linked Immunosorbent Assay (ELISA) (Ref: DY8459-05, R&D Systems, France) with the reagents recommended by the manufacturer (DuoSet Ancillary Reagent Kit 2, Ref: DY008, R&D Systems, France) and used according to the manufacturer's instructions.
# The optical density (OD) is read with a spectrophotometer at 450 nm. The concentration of KLK-5 is calculated from the standard range (15.6 to 1000 pg/ml) established with the recombinant human protein of KLK-5.
# A dilution of the supernatants to 1/50th is mandatory so that the samples are not out of range. […]
# MTT is a soluble yellow dye which is metabolized by mitochondrial enzymes (succinate dehydrogenase) into a dark blue compound: formazan. The formazan crystals are then dissolved in DMSO then the optical density is measured spectrophotometrically at 540 nm. […]
structure (smiles),measurement,value
C[C@@H]1C[C@H]2[C@@H]3CCC4=CC(=O)C=C[C@]4(C)[C@@]3(F)[C@@H](O)C[C@]2(C)[C@@]1(O)C(=O)CO [dexamethasone],inhibition at 1 µM,16.6%

# From US11813350B2, “Composition for the treatment of rosacea and/or telangiectasia” (NAOS INSTITUTE OF LIFE SCIENCE, priority 2020, dated 2023)
